Results taken from US20250326771A1, “PIPERAZINE DERIVATIVES USEFUL IN HIV THERAPY” (VIIV HEALTHCARE COMPANY, priority 2022, published 2025).
pIC50: −log10 of the molar value.

How the values were obtained:
cIAP1-BIR3 = cIAP1-BIR3 (Homo sapiens (Human), UniProt Q13490); test: BIR binding assay (FRET competition), cIAP1 BIR3; details: for cIAP1 BIR3 vs BIR2 separation window: fold separation (FS) for cIAP1
Procedure, shortened: (§1)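 Compounds tested as 15-point, 3-fold series displacing 200 nM AlexaFluor647-labelled SMAC peptide from His-tagged BIR domain (cIAP1-BIR3 50 nM; cIAP1-BIR2 and cIAP2-BIR2 325 nM; XIAP-BIR3 100 nM), pH 7.4, 60 min. Eu-W1024 (2 nM) added 30 min; emission ratio fitted for IC50.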

cIAP1-BIR2 = cIAP1-BIR2 (Homo sapiens (Human), UniProt Q13490); test: BIR binding assay (FRET competition), cIAP1 BIR2
Procedure, shortened: as §1

XIAP-BIR2 = XIAP-BIR2 (Homo sapiens (Human), UniProt P98170); test: BIR binding assay (FRET competition), XIAP BIR2; details: for IC50: FRET competition, read-out: XIAP BIR2 (pIC50) (converted)
Procedure, shortened: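 Competitive TR-FRET used His-tagged XIAP-BIR2 (200 nM) and 200 nM AlexaFluor647-labelled AVPIAQKSE SMAC peptide in HEPES buffer pH 7.4 with CHAPS, glycerol and DTT, incubated 60 min before 30 min with 2 nM Eu-W1024. The 615/665 nm ratio from a 15-point, 3-fold series was fit with a four-parameter model for IC50/pIC50.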

cIAP2-BIR2 = cIAP2-BIR2 (Homo sapiens (Human), UniProt Q13489); test: BIR binding assay (FRET competition), cIAP2 BIR2
Procedure, shortened: as §1

cIAP2-BIR3 = cIAP2-BIR3 (Homo sapiens (Human), UniProt Q13489); test: BIR binding assay (FRET competition), cIAP2 BIR3; details: for cIAP2 BIR3 vs BIR2 separation window: fold separation (FS) for cIAP2
XIAP-BIR3 = XIAP-BIR3 (Homo sapiens (Human), UniProt P98170); test: BIR binding assay (FRET competition), XIAP BIR3; details: for XIAP BIR3 vs BIR2 separation window: fold separation (FS) for XIAP
Procedure, shortened: as §1

[1] = tested on: Jurkat HIV-luciferase clones; test: Jurkat latency reversal assay; format: cell-based; details: Homo sapiens, 48 h; Jurkat latency reversal assay potency; read-out: Jurkat pEC50 (converted)
Procedure, shortened: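 Luminescence read-out: Steady-Glo after 48 h, 37° C, on mixed Jurkat HIV-luc clones (C16, 115, N6; 5,000 cells/well total). Cpd 14-pt 3-fold dilutions, duplicate, top 10 μM, 0.5% DMSO. EC50 + max % activation vs vehicle via 4-parameter fit.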

Chain of cIAP2-BIR3 (Q13489 238-349): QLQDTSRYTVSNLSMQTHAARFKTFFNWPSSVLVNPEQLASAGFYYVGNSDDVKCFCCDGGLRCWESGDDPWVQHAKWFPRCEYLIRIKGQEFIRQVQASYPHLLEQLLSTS
Chain of cIAP1-BIR2 (Q13490 173-257): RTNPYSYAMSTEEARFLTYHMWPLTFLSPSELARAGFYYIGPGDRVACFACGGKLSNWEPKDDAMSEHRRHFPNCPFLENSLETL
Chain of XIAP-BIR3 (P98170 241-356): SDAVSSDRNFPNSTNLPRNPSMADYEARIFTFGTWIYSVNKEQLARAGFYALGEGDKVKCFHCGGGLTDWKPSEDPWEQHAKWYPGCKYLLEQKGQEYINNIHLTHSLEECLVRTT
Chain of XIAP-BIR2 (P98170 124-240): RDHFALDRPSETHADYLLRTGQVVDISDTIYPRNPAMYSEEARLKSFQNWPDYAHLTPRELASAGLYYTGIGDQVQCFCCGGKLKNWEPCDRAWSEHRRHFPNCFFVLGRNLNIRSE
Chain of cIAP1-BIR3 (Q13490 253-363): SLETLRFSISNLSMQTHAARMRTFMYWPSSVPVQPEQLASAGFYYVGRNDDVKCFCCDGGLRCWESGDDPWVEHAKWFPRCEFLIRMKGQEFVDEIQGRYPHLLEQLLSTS
Chain of cIAP2-BIR2 (Q13489 158-242): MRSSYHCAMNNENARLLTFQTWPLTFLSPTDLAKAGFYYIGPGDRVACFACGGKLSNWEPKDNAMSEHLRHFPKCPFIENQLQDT

SMILES | pIC50 (cIAP1-BIR3) | cIAP1 BIR3 vs BIR2 separation window (cIAP1-BIR3) | pIC50 (cIAP1-BIR2) | IC50 (XIAP-BIR2) | pIC50 (cIAP2-BIR2) | pIC50 (cIAP2-BIR3) | cIAP2 BIR3 vs BIR2 separation window (cIAP2-BIR3) | pIC50 (XIAP-BIR3) | XIAP BIR3 vs BIR2 separation window (XIAP-BIR3) | EC50 [1] | cIAP1 BIR3 (pIC50) (cIAP1-BIR3; FRET competition binding) | XIAP BIR2 (pIC50) (XIAP-BIR2; FRET competition binding)
C[C@@H]1CN(CC(=O)N2CC(C)(C)c3[nH]c(=O)c(Cc4ccc(F)cc4F)cc32)[C@@H](CN2CCO[C@H](C(=O)NCc3ccc(CNC(=O)[C@@H]4CN(C[C@H]5CN[C@H](C)CN5CC(=O)N5CC(C)(C)c6[nH]c(=O)c(Cc7ccc(F)cc7F)cc65)CCO4)cc3)C2)CN1 [Compound 177, (2S,2′S)-N,N′-(1,4-phenylenebis(methylene)) bis(4-(((2R,5R)-1-(2-(6-(2,4-difluorobenzyl)-3,3-dimethyl-5-oxo-2,3,4,5-tetrahydro-1H-pyrrolo[3,2-b]pyridin-1-yl)-2-oxoethyl)-5-methylpiperazin-2-yl)methyl)morpholine-2-carboxamide)] | 7.50 to 7.80 | +++ (10,000>FS>1,000) | 5.50 to 6.00 | 10 to 51.3 µM | 5.50 to 6.00 | 7.80 to 8.10 | +++ (10,000>FS>1,000) | 6.30 to 7.50 | ++++ (FS>10,000) | 0.49 to 12.6 nM | – | –
C[C@@H]1CN(CC(=O)N2CC(C)(C)c3[nH]c(=O)c(Cc4ccc(F)cc4)cc32)[C@@H](CN2CCO[C@H](C(=O)NCCN3CCN(C(=O)[C@@H]4CN(C[C@H]5CN[C@H](C)CN5CC(=O)N5CC(C)(C)c6[nH]c(=O)c(Cc7ccc(F)cc7)cc65)CCO4)CC3)C2)CN1 [Compound 134, (S)-4-(((2R,5R)-1-(2-(6-(4-fluorobenzyl)-3,3-dimethyl-5-oxo-2,3,4,5-tetrahydro-1H-pyrrolo[3,2-b]pyridin-1-yl)-2-oxoethyl)-5-methylpiperazin-2-yl)methyl)-N-(2-(4-((S)-4-(((2R,5R)-1-(2-(6-(4-fluorobenzyl)-3,3-dimethyl-5-oxo-2,3,4,5-tetrahydro-1H-pyrrolo[3,2-b]pyridin-1-yl)-2-oxoethyl)-5-methylpiperazin-2-yl)methyl)morpholine-2-carbonyl)piperazin-1-yl)ethyl)morpholine-2-carboxamide] | 7.50 to 7.80 | ++ (1,000>FS>100) | 5.50 to 6.00 | 10 to 51.3 µM | 5.50 to 6.00 | 7.80 to 8.10 | +++ (10,000>FS>1,000) | 6.30 to 7.50 | +++ (10,000>FS>1,000) | 12.6 to 63.1 nM | – | –
C[C@@H]1CN(CC(=O)N2CC(C)(C)c3[nH]c(=O)c(Cc4ccc(F)cc4)cc32)[C@@H](CN2CCO[C@H](C(=O)NCCCC(=O)N3CCN(C[C@H]4CN[C@H](C)CN4CC(=O)N4CC(C)(C)c5[nH]c(=O)c(Cc6ccc(F)cc6)cc54)[C@H](C)C3)C2)CN1 [Compound 160, (S)-4-(((2R,5R)-1-(2-(6-(4-fluorobenzyl)-3,3-dimethyl-5-oxo-2,3,4,5-tetrahydro-1H-pyrrolo[3,2-b]pyridin-1-yl)-2-oxoethyl)-5-methylpiperazin-2-yl)methyl)-N-(4-((R)-4-(((2R,5R)-1-(2-(6-(4-fluorobenzyl)-3,3-dimethyl-5-oxo-2,3,4,5-tetrahydro-1H-pyrrolo[3,2-b]pyridin-1-yl)-2-oxoethyl)-5-methylpiperazin-2-yl)methyl)-3-methylpiperazin-1-yl)-4-oxobutyl)morpholine-2-carboxamide] | 7.80 to 8.10 | ++ (1,000>FS>100) | 5.50 to 6.00 | 10 to 51.3 µM | 5.50 to 6.00 | 7.80 to 8.10 | +++ (10,000>FS>1,000) | 7.80 to 8.10 | ++++ (FS>10,000) | 63.1 to 316 nM | – | –
C[C@@H]1CN(CC(=O)N2CC(C)(C)c3[nH]c(=O)c(Cc4ccc(F)cc4)cc32)[C@@H](CN2CCO[C@H](C(=O)NCC3CCN(C(=O)[C@@H]4CN(C[C@H]5CN[C@H](C)CN5CC(=O)N5CC(C)(C)c6[nH]c(=O)c(Cc7ccc(F)cc7)cc65)CCO4)CC3)C2)CN1 [Compound 133, (S)-4-(((2R,5R)-1-(2-(6-(4-fluorobenzyl)-3,3-dimethyl-5-oxo-2,3,4,5-tetrahydro-1H-pyrrolo[3,2-b]pyridin-1-yl)-2-oxoethyl)-5-methylpiperazin-2-yl)methyl)-N-((1-((S)-4-(((2R,5R)-1-(2-(6-(4-fluorobenzyl)-3,3-dimethyl-5-oxo-2,3,4,5-tetrahydro-1H-pyrrolo[3,2-b]pyridin-1-yl)-2-oxoethyl)-5-methylpiperazin-2-yl)methyl)morpholine-2-carbonyl)piperidin-4-yl)methyl)morpholine-2-carboxamide] | 6.30 to 7.50 | ++ (1,000>FS>100) | 5.50 to 6.00 | 10 to 51.3 µM | 5.00 to 5.50 | 7.80 to 8.10 | +++ (10,000>FS>1,000) | 7.50 to 7.80 | ++++ (FS>10,000) | 63.1 to 316 nM | – | –
C[C@@H]1CN(CC(=O)N2CC(C)(C)c3ncc(Nc4ccc(F)cc4)cc32)[C@@H](CN2CCO[C@H](COc3cccc(OC[C@@H]4CN(C[C@H]5CN[C@H](C)CN5CC(=O)N5CC(C)(C)c6ncc(Nc7ccc(F)cc7)cc65)CCO4)c3)C2)CN1 [Compound 143, -[6-(4-fluoroanilino)-3,3-dimethyl-2H-pyrrolo[3,2-b]pyridin-1-yl]-2-[(2R,5R)-2-[[(2S)-2-[[3-[[(2S)-4-[[(2R,5R)-1-[2-[6-(4-fluoroanilino)-3,3-dimethyl-2H-pyrrolo[3,2-b]pyridin-1-yl]-2-oxo-ethyl]-5-methyl-piperazin-2-yl]methyl]morpholin-2-yl]methoxy]phenoxy]methyl]morpholin-4-yl]methyl]-5-methyl-piperazin-1-yl]ethenone] | 6.30 to 7.50 | – | 4.29 to 5.00 | 10 to 51.3 µM | 4.29 to 5.00 | 7.50 to 7.80 | ++++ (FS>10,000) | 6.30 to 7.50 | +++ (10,000>FS>1,000) | 316 to 3310 nM | – | –
C[C@@H]1CN(CC(=O)N2CC(C)(C)c3[nH]c(=O)c(Oc4ccccc4)cc32)[C@@H](CN2CCO[C@H](C(=O)NCc3ccc(CNC(=O)[C@@H]4CN(C[C@H]5CN[C@H](C)CN5CC(=O)N5CC(C)(C)c6[nH]c(=O)c(Oc7ccccc7)cc65)CCO4)cc3)C2)CN1 [Compound 185, (2S,2′S)-N,N′-(1,4-phenylenebis(methylene)) bis(4-(((2R,5R)-1-(2-(3,3-dimethyl-5-oxo-6-phenoxy-2,3,4,5-tetrahydro-1H-pyrrolo[3,2-b]pyridin-1-yl)-2-oxoethyl)-5-methylpiperazin-2-yl)methyl)morpholine-2-carboxamide)] | 7.50 to 7.80 | +++ (10,000>FS>1,000) | 5.00 to 5.50 | 10 to 51.3 µM | 4.29 to 5.00 | 8.10 to 8.86 | ++++ (FS>10,000) | 6.30 to 7.50 | +++ (10,000>FS>1,000) | 316 to 3310 nM | – | –
C[C@@H]1CN(CC(=O)N2CC(C)(C)c3[nH]c(=O)c(Cc4ccc(F)cc4)cc32)[C@@H](CN2CCC[C@@H](NC(=O)CCCCCCC(=O)N[C@@H]3CCCN(C[C@H]4CN[C@H](C)CN4CC(=O)N4CC(C)(C)c5[nH]c(=O)c(Cc6ccc(F)cc6)cc54)C3)C2)CN1 [Example 44, N^1,N^8-bis((R)-1-(((2R,5R)-1-(2-(6-(4-fluorobenzyl)-3,3-dimethyl-5-oxo-2,3,4,5-tetrahydro-1H-pyrrolo[3,2-b]pyridin-1-yl)-2-oxoethyl)-5-methylpiperazin-2-yl)methyl)piperidin-3-yl)octanediamide] | – | +++ (10,000>FS>1,000) | 4.29 to 5.00 | – | 4.29 to 5.00 | 7.50 to 7.80 | ++++ (FS>10,000) | 7.50 to 7.80 | ++++ (FS>10,000) | 316 to 3310 nM | + (7.50>pIC50>=6.30) | + (4.29<pIC50<=5.00)
C[C@@H]1CN(CC(=O)N2CC(C)(C)c3[nH]c(=O)c(Cc4ccc(F)cc4)cc32)[C@@H](CN2CCN(CCc3cn(CCC(=O)N4CCN(C[C@H]5CN[C@H](C)CN5CC(=O)N5CC(C)(C)c6[nH]c(=O)c(Cc7ccc(F)cc7)cc65)[C@H](C)C4)nn3)C[C@H]2C)CN1 [Compound 154] | 7.80 to 8.10 | +++ (10,000>FS>1,000) | 5.50 to 6.00 | 10 to 51.3 µM | 5.50 to 6.00 | 7.80 to 8.10 | +++ (10,000>FS>1,000) | 7.80 to 8.10 | ++++ (FS>10,000) | 63.1 to 316 nM | – | –
